PubChem BioAssay AID1259407 (Chemical Carcinogenesis Research Information System (CCRIS), 2018)
The source made the active and inactive calls. No rule for the calls is given here.

System: CCRIS mutagenicity, Ames/micronucleus/aberration tests
Test: CCRIS mutagenicity studies

## c1ccccc1
Test System: AMES SALMONELLA TYPHIMURIUM, Strain/Indicator: TA100, Metabolic Activation: RAT, LIVER, S-9, PHENOBARBITAL, Method: PREINCUBATION
  mutagenic call: inactive; negative
Test System: AMES SALMONELLA TYPHIMURIUM, Strain/Indicator: TA100, Metabolic Activation: RAT, LIVER, S-9, PHENOBARBITAL, Method: STANDARD PLATE
  mutagenic call: inactive; negative
Test System: AMES SALMONELLA TYPHIMURIUM, Strain/Indicator: TA100, Metabolic Activation: RAT, LIVER, S-9, PYRAZOLE, Method: STANDARD PLATE
  mutagenic call: inactive; negative
Test System: AMES SALMONELLA TYPHIMURIUM, Strain/Indicator: TA100, Metabolic Activation: S-9, Method: STANDARD PLATE
  mutagenic call: inactive; negative
Test System: AMES SALMONELLA TYPHIMURIUM, Strain/Indicator: TA102, Metabolic Activation: NONE, Method: STANDARD PLATE
  mutagenic call: inactive; negative
Test System: AMES SALMONELLA TYPHIMURIUM, Strain/Indicator: TA102, Metabolic Activation: RAT, LIVER, S-9, ETHANOL, Method: STANDARD PLATE
  mutagenic call: inactive; negative
Test System: AMES SALMONELLA TYPHIMURIUM, Strain/Indicator: TA102, Metabolic Activation: RAT, LIVER, S-9, PYRAZOLE, Method: STANDARD PLATE
  mutagenic call: inactive; negative
Test System: AMES SALMONELLA TYPHIMURIUM, Strain/Indicator: TA102, Metabolic Activation: S-9, Method: STANDARD PLATE
  mutagenic call: inactive; negative
Test System: AMES SALMONELLA TYPHIMURIUM, Strain/Indicator: TA104, Metabolic Activation: RAT, LIVER, S-9, AROCLOR 1254, Method: DESICCATOR
  mutagenic call: inactive; negative
Test System: AMES SALMONELLA TYPHIMURIUM, Strain/Indicator: TA1535, Metabolic Activation: HAMSTER LIVER S-9, AROCLOR 1254 (10 OR 30%), Method: PREINCUBATION
  mutagenic call: inactive; negative
Test System: AMES SALMONELLA TYPHIMURIUM, Strain/Indicator: TA1535, Metabolic Activation: NONE, Method: DESICCATOR
  mutagenic call: inactive; negative
Test System: AMES SALMONELLA TYPHIMURIUM, Strain/Indicator: TA1535, Metabolic Activation: NONE, Method: PREINCUBATION
  mutagenic call: inactive; negative
Test System: AMES SALMONELLA TYPHIMURIUM, Strain/Indicator: TA1535, Metabolic Activation: NONE, Method: STANDARD PLATE
  mutagenic call: inactive; negative
Test System: AMES SALMONELLA TYPHIMURIUM, Strain/Indicator: TA1535, Metabolic Activation: RAT LIVER S-9, AROCLOR 1254 (10 OR 30%), Method: PREINCUBATION
  mutagenic call: inactive; negative
Test System: AMES SALMONELLA TYPHIMURIUM, Strain/Indicator: TA1535, Metabolic Activation: RAT, LIVER, S-9, AROCLOR 1254, Method: DESICCATOR
  mutagenic call: active; positive
Test System: AMES SALMONELLA TYPHIMURIUM, Strain/Indicator: TA1535, Metabolic Activation: RAT, LIVER, S-9, AROCLOR 1254, Method: STANDARD PLATE
  mutagenic call: inactive; negative
Test System: AMES SALMONELLA TYPHIMURIUM, Strain/Indicator: TA1535, Metabolic Activation: RAT, LIVER, S-9, PYRAZOLE, Method: STANDARD PLATE
  mutagenic call: inactive; negative
Test System: AMES SALMONELLA TYPHIMURIUM, Strain/Indicator: TA1537, Metabolic Activation: NONE, Method: STANDARD PLATE
  mutagenic call: inactive; negative
Test System: AMES SALMONELLA TYPHIMURIUM, Strain/Indicator: TA1537, Metabolic Activation: RAT, LIVER, S-9, AROCLOR 1254, Method: STANDARD PLATE
  mutagenic call: inactive; negative
Test System: AMES SALMONELLA TYPHIMURIUM, Strain/Indicator: TA1537, Metabolic Activation: RAT, LIVER, S-9, PYRAZOLE, Method: STANDARD PLATE
  mutagenic call: inactive; negative
Test System: AMES SALMONELLA TYPHIMURIUM, Strain/Indicator: TA1538, Metabolic Activation: NONE, Method: STANDARD PLATE
  mutagenic call: inactive; negative
Test System: AMES SALMONELLA TYPHIMURIUM, Strain/Indicator: TA1538, Metabolic Activation: RAT, LIVER, S-9, AROCLOR 1254, Method: STANDARD PLATE
  mutagenic call: inactive; negative
Test System: AMES SALMONELLA TYPHIMURIUM, Strain/Indicator: TM677/8-AZAGUANINE, Metabolic Activation: NONE, Method: PREINCUBATION
  mutagenic call: inactive; negative
Test System: AMES SALMONELLA TYPHIMURIUM, Strain/Indicator: TM677/8-AZAGUANINE, Metabolic Activation: RAT, LIVER, S-9, PHENOBARBITAL, Method: PREINCUBATION
  mutagenic call: inactive; negative
Test System: AMES SALMONELLA TYPHIMURIUM, Strain/Indicator: TM677, Metabolic Activation: NONE, Method: STANDARD PLATE
  mutagenic call: inactive; negative
Test System: AMES SALMONELLA TYPHIMURIUM, Strain/Indicator: UTH8413, Metabolic Activation: NONE, Method: STANDARD PLATE
  mutagenic call: inactive; negative
Test System: AMES SALMONELLA TYPHIMURIUM, Strain/Indicator: UTH8413, Metabolic Activation: RAT, LIVER, S-9, AROCLOR, Method: STANDARD PLATE
  mutagenic call: inactive; negative
Test System: AMES SALMONELLA TYPHIMURIUM, Strain/Indicator: UTH8414, Metabolic Activation: NONE, Method: STANDARD PLATE
  mutagenic call: inactive; negative
Test System: AMES SALMONELLA TYPHIMURIUM, Strain/Indicator: UTH8414, Metabolic Activation: RAT, LIVER, S-9, AROCLOR, Method: STANDARD PLATE
  mutagenic call: inactive; negative
Test System: CHINESE HAMSTER OVARY, Strain/Indicator: CHO-K1-BH4 (HGPRT), Metabolic Activation: NONE, Method: SUSPENSION/PLATE
  mutagenic call: inactive; negative
Test System: CHINESE HAMSTER OVARY, Strain/Indicator: CHO-K1-BH4 (HGPRT), Metabolic Activation: RAT, LIVER, S-9, AROCLOR, Method: SUSPENSION/PLATE
  mutagenic call: inactive; negative
Test System: CHINESE HAMSTER OVARY, Strain/Indicator: CHO/6-THIOGUANINE, Metabolic Activation: HAMSTER EMBRYO CELL-MEDIATED
  mutagenic call: inactive; negative
Test System: CHINESE HAMSTER OVARY, Strain/Indicator: CHO/6-THIOGUANINE, Metabolic Activation: NONE
  mutagenic call: inactive; negative
Test System: CHINESE HAMSTER OVARY, Strain/Indicator: CHO/OUABAIN, Metabolic Activation: HAMSTER EMBRYO CELL-MEDIATED
  mutagenic call: inactive; negative
Test System: CHINESE HAMSTER OVARY, Strain/Indicator: CHO/OUABAIN, Metabolic Activation: NONE
  mutagenic call: inactive; negative
Test System: CHINESE HAMSTER V-79, Strain/Indicator: V-79 (HGPRT)/6-THIOGUANINE, Metabolic Activation: NONE
  mutagenic call: inactive; negative
Test System: CHINESE HAMSTER V-79, Strain/Indicator: V-79 (HGPRT)/6-THIOGUANINE, Metabolic Activation: RAT, LIVER, S-9, PHENOBARBITAL AND BETA-NAPHTHOFLAVONE
  mutagenic call: inactive; negative
Test System: CHINESE HAMSTER V-79, Strain/Indicator: V-79/6-THIOGUANINE, Metabolic Activation: RAT, LIVER, S-9, PHENOBARBITAL AND 5,6-BENZOFLAVONE, Method: REPLATING
  mutagenic call: inactive; negative
Test System: MOUSE LYMPHOMA, Strain/Indicator: L5178Y (TK+/+)/OUABAIN, Metabolic Activation: RAT LIVER S-9, AROCLOR 1254, Method: SUSPENSION/PLATE
  mutagenic call: active; positive
Test System: MOUSE LYMPHOMA, Strain/Indicator: L5178Y (TK+/TK-), Metabolic Activation: NONE, Method: MICROWELL
  mutagenic call: active; positive
Test System: MOUSE LYMPHOMA, Strain/Indicator: L5178Y (TK+/TK-), Metabolic Activation: NONE, Method: SUSPENSION/PLATE
  mutagenic call: inactive; negative
Test System: MOUSE LYMPHOMA, Strain/Indicator: L5178Y (TK+/TK-), Metabolic Activation: RAT, LIVER, S-9, AROCLOR 1254, Method: SUSPENSION/PLATE
  mutagenic call: active; positive
Test System: MOUSE LYMPHOMA, Strain/Indicator: L5178Y (TK+/TK-), Metabolic Activation: RAT, LIVER, S-9, Method: SUSPENSION/PLATE
  mutagenic call: inactive; negative
Test System: MOUSE LYMPHOMA, Strain/Indicator: L5178Y (TK+/TK-), Metabolic Activation: S-9, Method: MICROWELL
  mutagenic call: active; positive
Test System: MOUSE LYMPHOMA, Strain/Indicator: L5178Y(TK+/-)/TRIFLUOROTHYMIDINE, Metabolic Activation: RAT LIVER s-9, AROCLOR 1254, Method: SUSPENSION/PLATE
  mutagenic call: active; positive
Test System: UDS RAT HEPATOCYTES, Strain/Indicator: THY INCORP, Metabolic Activation: NONE, Method: LIQUID SCINTILLATION COUNTING
  mutagenic call: active; positive
Test System: UDS SHE CELLS, Strain/Indicator: THY INCORP, Metabolic Activation: NONE, Method: LIQUID SCINTILLATION COUNTING
  mutagenic call: inactive; negative
